Reference: US20190032014A1, “USING MICROBIOTA METABOLITES TO DIFFERENTIATE NAÏVE T-CELLS AND RELATED METHODS TO INDUCE OR PREVENT INFLAMMATORY CONDITIONS” (THE TEXAS A&M UNIVERSITY SYSTEM, priority 2016, published 2019)
“Also recorded” adds a separate entry of the source.

Key:
CD4+ CD25− naïve T cells [1] = assay: In vitro naïve T cell differentiation, Th17-skew (IL-17+ by FACS); assay type: cell-based, C57BL/6 mice; conditions: Th17 skewing conditions, vs DMF control
Experimental: (§1) Mesenteric lymph node (MLN) and spleen are harvested from WT or FOXP3^EGFP C57Bl/6 mice and homogenized. Spleen tissue is subjected to red blood cell lysis and pooled into a single cell suspension for counting. Counted cells are resuspended in sterile FACS buffer (PBS++ with 05% bovine serum albumin) at a concentration of ˜5×10^7 cells/mL and stained for 45 minutes at 4° C. with anti-CD4 and anti-CD25 fluorophore-conjugated monoclonal antibodies (mAb). After two washes, the stained cells are resuspended at ˜6×10^6 cells/mL in FACS buffer and immediately sorted. […] TDMMs are solubilized in DMF at 2 M and used at desired concentrations (e.g., 0.01, 0.1, 0.5 and 1.0 mM) in growth media; DMF in growth media (0.05%) is used as a solvent control.
(§2) The % of Treg or Th17 cells are determined based on the expression of signature transcription factors, FoxP3 and Rorγt, respectively. In addition, signature cytokine markers for Treg and Th17, TGFβ or IL-17, respectively, among others are measured using intracellular cytokine staining. Since it is possible that a cell could be positive for FoxP3 and still express some IL-17, the final % of Tregs are determined as the cell population that is FoxP3+TGFβ+ Rorγt-IL-17−. Similarly, the % of Th17 cells are determined as the population that is FoxP3-TGFβ− Rorγt+IL-17+.
(§3) CD4+ CD25− T cells were isolated to high purity (>98%) from the pooled spleen and mesenteric lymph nodes of C57BL/6 mice (Jackson Labs) with a BD FACS Aria II flow cytometer. Fc Block (BD), αCD4-efluor450 (eBioscience clone GK1.5) and αCD25-PECy7 (eBioscience clone PC61.5) antibodies were used for staining before sorting.
(§4) For Th1-skew: 5 ng/mL IL-12 (Peprotech cat. #210-12) and 10 µg/mL αIL-4 (BioXCell clone 11B11) were added to culture. For Th2-skew: 10 ng/mL IL-4 (Peprotech) and 10 μg/mL αIFN-γ (BioXCell clone R4-6A2) were added to culture. For Th17-skew: 10 ng/mL IL-6 (Peprotech), 5 ng/mL IL-23 (R&D), 0.5 ng/mL TGF-β (Peprotech), 10 μg/mL al-4 (BioXCell clone 11B11), and 10 μg/mL αIFN-γ (BioXCell clone R4-6A2) were added to culture. For Treg-skew: 2 ng/mL TGF-β (Peprotech) and 100 U/mL IL-2 (Roche) were added to culture. Sodium Propionate, sodium acetate, sodium butyrate and sodium chloride (all from Sigma-Aldrich) were solubilized in media and added to culture. Indole was solubilized in DMF (both from Sigma-Aldrich) at 2M and brought to final concentration in media. MGCD0103 (Selleck Chemicals) was solubilized in DMF at 2 mM and brought to final concentration in media. A 0.05% DMF solvent control was used for all experiments.

CD4+ CD25− naïve T cells [2] = assay: In vitro naïve T cell differentiation, Treg-skew (FoxP3+ by FACS); assay type: cell-based, C57BL/6 mice; conditions: Treg skewing conditions, vs DMF control
Experimental: as §1, §2, §3, §4

naïve T cells = conditions: Arpaia et al. 2013; cited from earlier work
[3] = tested on: naïve T cells obtained from humans; assay: Skewing of naïve T cells obtained from humans; assay type: cell-based
CD4+ CD25− naïve T cells [4] = assay: In vitro naïve T cell differentiation, Th1-skew (IFN-γ+); assay type: cell-based, C57BL/6 mice; conditions: Th1 skewing conditions; vs solvent control; listed as 5-HI
Experimental: When naïve CD4+ CD25− cells were cultured 72 hours in αCD3/28 coated wells with Th0-, Th1- or Th2-skew cytokines and indole or solvent control, followed by stimulation with PMA, Ionomycin and Golgi Plug for the last 5 hours of culture, no effect on the % of Th1 and Th2 cells was observed (in contrast to the significant effect that indole has on Treg and Th17 cells; see FIGS. 2A and 2B).
as §3, §4

Th17 transfer colitis = Th17 transfer colitis murine model; assay type: in vivo, Rag-null mice
Experimental: Finally, the presentation describes a study of the effects of an indole-induced iTreg skew on the course of colitis in a Th17 transfer colitis murine model. […] Briefly, naïve T-cells (CD4+CD25−) were cultured in vitro with cytokines to skew function towards a Th17 phenotype, in the presence of indole or 5-HI, or not. The skewed cultures were transferred to Rag-null mice (lack T- and B-lymphocytes); control mice received no T-cells. Mice were monitored for weight loss (as a measure of inflammation) over several weeks and assessed at indicated timepoints for T-cell phenotype.
The body weight of the mice was monitored from the time of cell transfer to the end point of day 49. […] Next, the Treg, Th17, and Th1 differentiation was assessed in cells obtained from the mesenteric lymph nodes (MLN) of mice administered directly with indole, 5-HI and control. These cells were determined/assayed by FACS for phenotype directly ex vivo from mice that were treated as in FIG. 28.

[5] = tested on: wild-type or AhR KO T cells; assay: T cell differentiation in wild-type vs AhR KO T cells; assay type: cell-based, mice
Experimental: The aryl hydrocarbon receptor (AhR) is implicated in the differentiation of Treg and Th17 cells. The role of AhR was assessed with respect to indole's effect on Treg augmentation. Wild-type and AhR KO naïve T-cells were conditioned with increasing amounts of indole and then assessed for % of FoxP3 expression. […] Additionally, the role of AhR was assessed with respect to indole's effect on Th17 inhibition.
The AhR knockout was further investigated for iTreg homing markers, CD62L and α4β7, as described above.
Next, the AhR knockout was further investigated for the impact of AhR on 5-HI-mediated T cell differentiation.

CD4+ CD25− naïve T cells [6] = assay: In vitro naïve T cell differentiation, Th17-skew (IL-17+ by FACS); assay type: cell-based, C57BL/6 mice; conditions: low and high titrations of IL-6
IL-6 receptor / pSTAT3 = assay: IL-6 receptor levels and STAT3 activity; assay type: cell-based; conditions: vs control
Experimental: Indole and 5-HI were assessed for impact on TGF-β receptor expression and SMAD2/3 activity. […] Indole and 5-HI were also assessed for impact on IL-6 receptor levels and subsequent STAT3 activity.

[7] = MLN, D15 and D45, by the end point

**Q.** With `O=C(O)C(=O)Cc1c[nH]c2ccccc12` [Indole-3-pyruvate] as the compound, how does the “effect on % IL-17+ cells / Th17 differentiation” value (CD4+ CD25− naïve T cells [1]) read?
**A.** modest (but significant) decrease in Th17

**Q.** And the “effect on % FoxP3+ cells / Treg differentiation” value (CD4+ CD25− naïve T cells [2])?
**A.** increasing Treg cells

**Q.** What does the source list for `CC(=O)O` [acetate, reference compound]?
**A.** effect on % IL-17+ cells / Th17 differentiation (CD4+ CD25− naïve T cells [1]): increases Th17 development; effect on % FoxP3+ cells / Treg differentiation (CD4+ CD25− naïve T cells [2]): no effect on Treg development

**Q.** With `CCC(=O)O` [propionate, reference compound] as the compound, how does the “effect on % IL-17+ cells / Th17 differentiation” value (CD4+ CD25− naïve T cells [1]) read?
**A.** increases Treg and Th17 development

**Q.** And the “effect on % FoxP3+ cells / Treg differentiation” value (CD4+ CD25− naïve T cells [2])?
**A.** increases Treg and Th17 development

**Q.** And the “differentiation of naïve T cells to Treg cells” value (naïve T cells)?
**A.** promoted differentiation of naïve T cells to Treg cells

**Q.** Which “effect on % IL-17+ cells / Th17 differentiation” value (CD4+ CD25− naïve T cells [1]) does the source give for `Oc1ccc2[nH]ccc2c1` [5-hydroxyindole] here?
**A.** increases Th17 cells

**Q.** What about the “effect on % IL-17+ cells / Th17 differentiation” value (CD4+ CD25− naïve T cells [1]; listed as 5-HI) of the same compound?
**A.** pro-Th17 response; also recorded: promotes Th1 and Th17 differentiation; also recorded: significant increase in % IL-17+ cells

**Q.** What about the “skewing effects on Tregs and Th17 cells in human cells” value [3] of the same compound?
**A.** recapitulated on naïve T cells obtained from humans

**Q.** What about the “effect on % Th1 cells (IFN-γ+)” value (CD4+ CD25− naïve T cells [4]) of the same compound?
**A.** promotes Th1 and Th17 differentiation; also recorded: increase in % IFN-γ+ cells

**Q.** And the “effect on % FoxP3+ cells / Treg differentiation” value (CD4+ CD25− naïve T cells [2])?
**A.** decreasing the Treg population

**Q.** And the “effect on % FoxP3+ cells / Treg differentiation” value (CD4+ CD25− naïve T cells [2]; listed as 5-HI)?
**A.** inhibits a Treg response; also recorded: strongly inhibits Treg differentiation; also recorded: decreased the % FoxP3+ cells

**Q.** What about the “Th1 differentiation in vivo (% INF-γ+ T cells, Th1/Treg balance, MLN)” value (Th17 transfer colitis; [7]) of the same compound?
**A.** increases the number of Th17 differentiation in vivo

**Q.** What about the “Th17 differentiation in vivo (% IL-17+ T cells, Th17/Treg balance, MLN)” value (Th17 transfer colitis; [7]) of the same compound?
**A.** increases the number of Th17 differentiation in vivo

**Q.** What about the “weight change (% from starting weight)” value (Th17 transfer colitis; mice receiving conditioned Th17 T cells, around day 43, end point day 49) of the same compound?
**A.** declined precipitously

**Q.** What about the “Th17 transfer colitis in vivo (overall)” value (Th17 transfer colitis; mouse, in vivo) of the same compound?
**A.** exacerbates Th17 transfer colitis in vivo

**Q.** And the “% IL-17+ in wild-type vs AhR KO T cells” value [5]?
**A.** significantly increased over wild-type cells

**Q.** What about the “% of IFN-γ+ T cells in AhR KO vs wild-type T cells” value ([5]; Th1 skew) of the same compound?
**A.** not significantly different than in wild-type cells

**Q.** And the “FoxP3+ % in wild-type vs AhR KO T cells” value ([5]; increasing amounts of test substance)?
**A.** decreases similarly in wild-type and AhR KO cells

**Q.** And the “% IL-17+ cells with titrations of IL-6” value (CD4+ CD25− naïve T cells [6])?
**A.** increased the % IL-17+ cells

**Q.** What about the “% pSTAT3+ cells / IL-6 induced stat3” value (IL-6 receptor / pSTAT3) of the same compound?
**A.** augments the IL-6 induced stat3 expression
